Experimental data taken from US10201564B2, “Methods of using inhaled nitric oxide gas for treatment of acute respiratory distress syndrome in children” (Mallinckrodt Hospital Products IP Limited, priority 2014, dated 2019).

System: pediatric subjects with acute hypoxemic respiratory failure (AHRF)
Assay: Pediatric AHRF study: adverse events, serious adverse events, deaths, discontinuations
Format: in vivo, human
Conditions: 5 ppm
Description: This was a prospective, multicenter, randomized, double-blind, placebo-controlled, parallel-group study of the safety and efficacy of inhaled nitric oxide in pediatric subjects with acute hypoxemic respiratory failure (AHRF). The subjects were randomized to receive either 5 ppm inhaled nitric oxide or placebo.
Nitric Oxide for inhalation at 5 ppm was administered continuously into the inspiratory limb of the ventilator circuit in mechanically ventilated subjects using a blinded version of the INOvent® delivery system.
Subjects received 100% treatment gas (nitric oxide 5 ppm or placebo [nitrogen gas]) until Day 28 or extubation, whichever occurred first.
This was a prospective, multicenter, randomized, double-blind, placebo-controlled, Phase III study to assess the effects of nitric oxide for inhalation in the treatment of acute hypoxic respiratory failure (AHRF) in pediatric subjects. The study population consisted of male and female pediatric subjects, aged 44 weeks postconceptional age to 16 years age, who were admitted to the pediatric intensive care unit (PICU) and who required intubation because of AHRF. The inclusion/exclusion criteria are described in the Patients section below.
Standardized ventilatory management and weaning procedures were used. Ventilatory management was used based on an “open lung approach” using positive end-expiratory pressure (PEEP) to increase lung volume and limiting tidal volumes to reduce plateau pressures. Subjects received nitric oxide for inhalation at 5 ppm or placebo (100% Grade 5 nitrogen gas) into the inspiratory limb of the ventilator circuit using a blinded version of the INOvent® delivery system. The subjects were treated until Day 28 or extubation, whichever occurred first. Subjects were assessed daily using a spontaneous breathing trial, according to the institution's standard of care. Arterial blood gases (ABG), ventilator settings, methemoglobin, oxygenation index, systolic blood pressure, diastolic blood pressure, Pediatric Risk of Mortality (PRISM) III score, and subject positioning (prone or supine) were performed/recorded at specified times during the study. Selected centers also performed plasma cytokine assays, bronchoalveolar lavage fluid (BALF) assays, and a 6-month follow-up assessment.

[1] = AE in which death was the outcome
[2] = AE not suspected related to study treatment
[3] = AE suspected related to study treatment
[4] = AE with death as outcome, not suspected related to treatment

Question: Which results are given for [N]=O [Nitric Oxide, nitric oxide]?
Answer: most frequently reported AEs: bradycardia and hypotension; subjects who died during the follow-up period after treatment: 1; subjects who died during treatment: 2; frequency of treatment discontinuation due to AEs (1 of 26 subjects, placebo 6.9%): 3.9%; subjects with serious AEs (SAEs) (1 of 26 subjects, placebo 27.6%): 3.9%; subjects with severe AEs (2 subjects, placebo 34.5%): 7.7%; subjects reporting AEs (16 of 26 subjects, placebo 72.4%): 61.5%; Bradycardia [1]: 1 (3.8%) n (%); Brain edema [1]: 0 (0.0) n (%); Cardiac arrest [1]: 0 (0.0) n (%); Diabetic ketoacidosis [1]: 0 (0.0) n (%); Hemolytic anemia [1]: 0 (0.0) n (%); Hepatic failure [1]: 0 (0.0) n (%); Hypotension [1]: 1 (3.8%) n (%); Intracranial pressure increased [1]: 0 (0.0) n (%); Multi-organ failure [1]: 0 (0.0) n (%); Pancreatitis [1]: 0 (0.0) n (%); Pneumonia, aspergillus [1]: 0 (0.0) n (%); Pulmonary hemorrhage [1]: 0 (0.0) n (%); Renal failure [1]: 0 (0.0) n (%); Renal impairment [1]: 0 (0.0) n (%); Sepsis [1]: 0 (0.0) n (%); Abdominal distension [2]: 0 (0.0) n (%); Acidosis [2]: 1 (3.8%) n (%); Agitation [2]: 2 (7.7%) n (%); Anemia [2]: 1 (3.8%) n (%); Apnea [2]: 1 (3.8%) n (%); Arrhythmia [2]: 1 (3.8%) n (%); Ascites [2]: 1 (3.8%) n (%); Bacteremia [2]: 2 (7.7%) n (%); Bacteria, blood [2]: 1 (3.8%) n (%); Bacteria, sputum [2]: 0 (0.0) n (%); Bladder distension [2]: 0 (0.0) n (%); Bradycardia [2]: 3 (11.5%) n (%); Brain edema [2]: 0 (0.0) n (%); Bronchoalveolar lavage [2]: 1 (3.8%) n (%); C-reactive protein increased [2]: 0 (0.0) n (%); Cardiac arrest [2]: 0 (0.0) n (%); Cerebral artery occlusion [2]: 0 (0.0) n (%); Chest tube insertion [2]: 1 (3.8%) n (%); Deep vein thrombosis [2]: 2 (7.7%) n (%); Device failure [2]: 0 (0.0) n (%); Diabetic ketoacidosis [2]: 0 (0.0) n (%); Diarrhea [2]: 0 (0.0) n (%); Disseminated intravascular coagulation [2]: 0 (0.0) n (%); Empyema [2]: 0 (0.0) n (%); Feeding disorder [2]: 0 (0.0) n (%); Fungemia [2]: 1 (3.8%) n (%); Fungus culture positive [2]: 0 (0.0) n (%); Fungus urine test positive [2]: 0 (0.0) n (%); Gastrointestinal hemorrhage [2]: 0 (0.0) n (%); Generalized edema [2]: 0 (0.0) n (%); Grangrene [2]: 1 (3.8%) n (%); Hematuria [2]: 0 (0.0) n (%); Hemoglobinemia [2]: 1 (3.8%) n (%); Hemolytic anemia [2]: 0 (0.0) n (%); Hemopneumothorax [2]: 0 (0.0) n (%); Hemorrhage [2]: 0 (0.0) n (%); Hemothorax [2]: 0 (0.0) n (%); Hepatic failure [2]: 0 (0.0) n (%); Hepatosplenomegaly [2]: 1 (3.8%) n (%); Hyperammonemia [2]: 0 (0.0) n (%); Hypercalcemia [2]: 1 (3.8%) n (%); Hypercapnia [2]: 0 (0.0) n (%); Hyperchloremia [2]: 1 (3.8%) n (%); Hyperglycemia [2]: 1 (3.8%) n (%); Hyperkalemia [2]: 1 (3.8%) n (%); Hyperlipidemia [2]: 0 (0.0) n (%); Hypernatremia [2]: 2 (7.7%) n (%); Hypertension [2]: 0 (0.0) n (%); Hypocalcemia [2]: 1 (3.8%) n (%); Hypochloremia [2]: 0 (0.0) n (%); Hypokalemia [2]: 2 (7.7%) n (%); Hypotension [2]: 3 (11.5%) n (%); Hypothermia [2]: 0 (0.0) n (%); Hypoxia [2]: 0 (0.0) n (%); Intracranial pressure increased [2]: 0 (0.0) n (%); Labile blood pressure [2]: 0 (0.0) n (%); Leukocytosis [2]: 1 (3.8%) n (%); Lung infection, pseudomonal [2]: 0 (0.0) n (%); Medical device removal [2]: 0 (0.0) n (%); Metabolic acidosis [2]: 0 (0.0) n (%); Metabolic alkalosis [2]: 1 (3.8%) n (%); Multi-organ failure [2]: 0 (0.0) n (%); Ocular icterus [2]: 0 (0.0) n (%); Oliguria [2]: 0 (0.0) n (%); Oxygen saturation decreased [2]: 2 (7.7%) n (%); Pancreatitis [2]: 0 (0.0) n (%); Pleural effusion [2]: 0 (0.0) n (%); Pneumomediastinum [2]: 0 (0.0) n (%); Pneumonia [2]: 1 (3.8%) n (%); Pneumonia, aspergillus [2]: 0 (0.0) n (%); Pneumonia, staphylococcal [2]: 1 (3.8%) n (%); Pneumothorax [2]: 2 (7.7%) n (%); Pruritus [2]: 0 (0.0) n (%); Pseudomonal sepsis [2]: 1 (3.8%) n (%); Pulmonary hemorrhage [2]: 0 (0.0) n (%); Pulmonary hypertension [2]: 0 (0.0) n (%); Pyrexia [2]: 0 (0.0) n (%); Renal failure [2]: 1 (3.8%) n (%); Renal failure, acute [2]: 0 (0.0) n (%); Renal impairment [2]: 0 (0.0) n (%); Respiratory acidosis [2]: 0 (0.0) n (%); Respiratory failure [2]: 1 (3.8%) n (%); Sepsis [2]: 0 (0.0) n (%); Skin injury [2]: 0 (0.0) n (%); Subdural hematoma [2]: 0 (0.0) n (%); Thrombocythemia [2]: 1 (3.8%) n (%); Thrombocytopenia [2]: 0 (0.0) n (%); Tracheitis [2]: 2 (7.7%) n (%); Unevaluable event [2]: 2 (7.7%) n (%); Urinary tract infection [2]: 1 (3.8%) n (%); Urinary tract infection, fungal [2]: 1 (3.8%) n (%); Urine output decreased [2]: 1 (3.8%) n (%); White blood cell count increased [2]: 0 (0.0) n (%); Abdominal distension [3]: 0 (0.0) n (%); Acidosis [3]: 0 (0.0) n (%); Agitation [3]: 0 (0.0) n (%); Anemia [3]: 0 (0.0) n (%); Apnea [3]: 0 (0.0) n (%); Arrhythmia [3]: 0 (0.0) n (%); Ascites [3]: 0 (0.0) n (%); Bacteremia [3]: 0 (0.0) n (%); Bacteria, blood [3]: 0 (0.0) n (%); Bacteria, sputum [3]: 0 (0.0) n (%); Bladder distension [3]: 0 (0.0) n (%); Bradycardia [3]: 0 (0.0) n (%); Brain edema [3]: 0 (0.0) n (%); Bronchoalveolar lavage [3]: 0 (0.0) n (%); C-reactive protein increased [3]: 0 (0.0) n (%); Cardiac arrest [3]: 0 (0.0) n (%); Cerebral artery occlusion [3]: 0 (0.0) n (%); Chest tube insertion [3]: 0 (0.0) n (%); Deep vein thrombosis [3]: 0 (0.0) n (%); Device failure [3]: 0 (0.0) n (%); Diabetic ketoacidosis [3]: 0 (0.0) n (%); Diarrhea [3]: 0 (0.0) n (%); Disseminated intravascular coagulation [3]: 0 (0.0) n (%); Empyema [3]: 0 (0.0) n (%); Feeding disorder [3]: 0 (0.0) n (%); Fungemia [3]: 0 (0.0) n (%); Fungus culture positive [3]: 0 (0.0) n (%); Fungus urine test positive [3]: 0 (0.0) n (%); Gastrointestinal hemorrhage [3]: 0 (0.0) n (%); Generalized edema [3]: 0 (0.0) n (%); Grangrene [3]: 0 (0.0) n (%); Hematuria [3]: 0 (0.0) n (%); Hemoglobinemia [3]: 0 (0.0) n (%); Hemolytic anemia [3]: 0 (0.0) n (%); Hemopneumothorax [3]: 0 (0.0) n (%); Hemorrhage [3]: 0 (0.0) n (%); Hemothorax [3]: 0 (0.0) n (%); Hepatic failure [3]: 0 (0.0) n (%); Hepatosplenomegaly [3]: 0 (0.0) n (%); Hyperammonemia [3]: 0 (0.0) n (%); Hypercalcemia [3]: 0 (0.0) n (%); Hypercapnia [3]: 0 (0.0) n (%); Hyperchloremia [3]: 0 (0.0) n (%); Hyperglycemia [3]: 0 (0.0) n (%); Hyperkalemia [3]: 0 (0.0) n (%); Hyperlipidemia [3]: 0 (0.0) n (%); Hypernatremia [3]: 0 (0.0) n (%); Hypertension [3]: 0 (0.0) n (%); Hypocalcemia [3]: 0 (0.0) n (%); Hypochloremia [3]: 0 (0.0) n (%); Hypokalemia [3]: 0 (0.0) n (%); Hypotension [3]: 0 (0.0) n (%); Hypothermia [3]: 0 (0.0) n (%); Hypoxia [3]: 0 (0.0) n (%); Intracranial pressure increased [3]: 0 (0.0) n (%); Labile blood pressure [3]: 0 (0.0) n (%); Leukocytosis [3]: 0 (0.0) n (%); Lung infection, pseudomonal [3]: 0 (0.0) n (%); Medical device removal [3]: 0 (0.0) n (%); Metabolic acidosis [3]: 0 (0.0) n (%); Metabolic alkalosis [3]: 0 (0.0) n (%); Multi-organ failure [3]: 0 (0.0) n (%); Ocular icterus [3]: 0 (0.0) n (%); Oliguria [3]: 0 (0.0) n (%); Oxygen saturation decreased [3]: 0 (0.0) n (%); Pancreatitis [3]: 0 (0.0) n (%); Pleural effusion [3]: 0 (0.0) n (%); Pneumomediastinum [3]: 0 (0.0) n (%); Pneumonia [3]: 0 (0.0) n (%); Pneumonia, aspergillus [3]: 0 (0.0) n (%); Pneumonia, staphylococcal [3]: 0 (0.0) n (%); Pneumothorax [3]: 0 (0.0) n (%); Pruritus [3]: 0 (0.0) n (%); Pseudomonal sepsis [3]: 0 (0.0) n (%); Pulmonary hemorrhage [3]: 0 (0.0) n (%); Pulmonary hypertension [3]: 0 (0.0) n (%); Pyrexia [3]: 0 (0.0) n (%); Renal failure [3]: 0 (0.0) n (%); Renal failure, acute [3]: 0 (0.0) n (%); Renal impairment [3]: 0 (0.0) n (%); Respiratory acidosis [3]: 0 (0.0) n (%); Respiratory failure [3]: 0 (0.0) n (%); Sepsis [3]: 0 (0.0) n (%); Skin injury [3]: 0 (0.0) n (%); Subdural hematoma [3]: 0 (0.0) n (%); Thrombocythemia [3]: 0 (0.0) n (%); Thrombocytopenia [3]: 0 (0.0) n (%); Tracheitis [3]: 0 (0.0) n (%); Unevaluable event [3]: 0 (0.0) n (%); Urinary tract infection [3]: 0 (0.0) n (%); Urinary tract infection, fungal [3]: 0 (0.0) n (%); Urine output decreased [3]: 0 (0.0) n (%); White blood cell count increased [3]: 0 (0.0) n (%); Bradycardia [4]: 1 (3.8%) n (%); Brain edema [4]: 0 (0.0) n (%); Cardiac arrest [4]: 0 (0.0) n (%); Diabetic ketoacidosis [4]: 0 (0.0) n (%); Hemolytic anemia [4]: 0 (0.0) n (%)
